Measurements: patent US4472304A, “(Amido)N-substituted bleomycins, salts thereof and process for preparation thereof” (Nippon Kayaku Kabushiki Kaisha, priority 1981, dated 1984)

Experiments:
[1] = tested on: Mycobacterium smegmatis ATCC 607; assay: Antimicrobial activity against Mycobacterium smegmatis ATCC 607 (agar plate-cylinder); format: cell-based; conditions: standard bleomycin A2 (copper-free) assumed 1,000 mcg potency/mg
Method: (§1) 2. ANT[…] MYC[…] ATCC 607 AND BACILLUS SUBTILIS
(§2) The antimicrobial activity was tested against the captioned test organisms by the method of agar plate-cylinder. The activity was recorded on the assumption that the activity of standard sample of bleomycin A2 (copper-free form) is 1,000 mcg poteney/mg.

Bacillus subtilis = assay: Antimicrobial activity against Bacillus subtilis (agar plate-cylinder); format: cell-based; conditions: standard bleomycin A2 (copper-free) assumed 1,000 mcg potency/mg
Method: as §1, §2

| SMILES | Antimicrobial potency of Cu-free compound against Mycobacterium smegmatis ATCC 607 [1] [mcg potency/mg] | Antimicrobial potency of Cu-free compound against Bacillus subtilis (Bacillus subtilis) [mcg potency/mg] |
| --- | --- | --- |
| Cc1c(N)nc(C(CC(N)=O)NCC(N)C(=O)NC(C)C)nc1C(=O)NC(C(=O)NC(C)C(O)C(C)C(=O)NC(C(=O)NCCc1nc(-c2nc(C(=O)NCCc3c[nH]cn3)cs2)cs1)C(C)O)C(OC1OC(CO)C(O)C(O)C1OC1OC(CO)C(O)C(OC(N)=O)C1O)c1cnc[nH]1 (stereo not drawn) [Compound 3, 2-(4'-Imidazolyl)ethylamino-(amido)N--[isopropyl]-BLM] | 2778 | 593 |
| Cc1c(N)nc(C(CC(N)=O)NCC(N)C(=O)NCc2ccccc2)nc1C(=O)NC(C(=O)NC(C)C(O)C(C)C(=O)NC(C(=O)NCCc1nc(-c2nc(C(=O)NCCc3c[nH]cn3)cs2)cs1)C(C)O)C(OC1OC(CO)C(O)C(O)C1OC1OC(CO)C(O)C(OC(N)=O)C1O)c1cnc[nH]1 (stereo not drawn) [Compound 4, 2-(4'-Imidazolyl)ethylamino-(amido)N--[benzyl]-BLM] | 6595 | 579 |
| Cc1c(N)nc(C(CC(N)=O)NCC(N)C(=O)NCCCNC(C)c2ccccc2)nc1C(=O)NC(C(=O)NC(C)C(O)C(C)C(=O)NC(C(=O)NCCc1nc(-c2nc(C(=O)NCCc3c[nH]cn3)cs2)cs1)C(C)O)C(OC1OC(CO)C(O)C(O)C1OC1OC(CO)C(O)C(OC(N)=O)C1O)c1cnc[nH]1 [Compound 5, 2-(4'-Imidazolyl)ethylamino-(amido)N--[3-((S)-1'-phenylethyl)-aminopropyl]-BLM] | 9846 | 3772 |
| Cc1c(N)nc(C(CC(N)=O)NCC(N)C(=O)NCCN)nc1C(=O)NC(C(=O)NC(C)C(O)C(C)C(=O)NC(C(=O)NCCc1nc(-c2nc(C(=O)NCCc3c[nH]cn3)cs2)cs1)C(C)O)C(OC1OC(CO)C(O)C(O)C1OC1OC(CO)C(O)C(OC(N)=O)C1O)c1cnc[nH]1 (stereo not drawn) [Compound 6, 2-(4'-Imidazolyl)ethylamino-(amido)N--[2-aminoethyl]-BLM] | 2396 | 4453 |
| Cc1c(N)nc(C(CC(N)=O)NCC(N)C(=O)NC(C)C)nc1C(=O)NC(C(=O)NC(C)C(O)C(C)C(=O)NC(C(=O)NCCc1nc(-c2nc(C(=O)NCCCCNC(=N)N)cs2)cs1)C(C)O)C(OC1OC(CO)C(O)C(O)C1OC1OC(CO)C(O)C(OC(N)=O)C1O)c1cnc[nH]1 (stereo not drawn) [Compound 7, 4-Guanidinobutylamino-(amido)N--[isopropyl]-BLM] | 6425 | 1950 |
| Cc1c(N)nc(C(CC(N)=O)NCC(N)C(=O)NCC(F)(F)F)nc1C(=O)NC(C(=O)NC(C)C(O)C(C)C(=O)NC(C(=O)NCCc1nc(-c2nc(C(=O)NCCCCNC(=N)N)cs2)cs1)C(C)O)C(OC1OC(CO)C(O)C(O)C1OC1OC(CO)C(O)C(OC(N)=O)C1O)c1cnc[nH]1 (stereo not drawn) [Compound 9, 4-Guanidinobutylamino-(amido)N--[2',2',2'-trifluoroethyl]-BLM] | 3990 | 730 |
| CCCCCCCCNC(=O)C(N)CNC(CC(N)=O)c1nc(N)c(C)c(C(=O)NC(C(=O)NC(C)C(O)C(C)C(=O)NC(C(=O)NCCc2nc(-c3nc(C(=O)NCCCCNC(=N)N)cs3)cs2)C(C)O)C(OC2OC(CO)C(O)C(O)C2OC2OC(CO)C(O)C(OC(N)=O)C2O)c2cnc[nH]2)n1 (stereo not drawn) [Compound 10, 4-Guanidinobutylamino-(amido)N--[octyl]-BLM] | 33700 | 1500 |
| Cc1c(N)nc(C(CC(N)=O)NCC(N)C(=O)NCCCNC(C)c2ccccc2)nc1C(=O)NC(C(=O)NC(C)C(O)C(C)C(=O)NC(C(=O)NCCc1nc(-c2nc(C(=O)NCCCCNC(=N)N)cs2)cs1)C(C)O)C(OC1OC(CO)C(O)C(O)C1OC1OC(CO)C(O)C(OC(N)=O)C1O)c1cnc[nH]1 [Compound 11, 4-Guanidinobutylamino-(amido)N--[3-((S)-1'-phenylethyl)amino-propyl]-BLM] | 15729 | 7036 |
| CCCCN(CCCC)CCCNC(=O)C(N)CNC(CC(N)=O)c1nc(N)c(C)c(C(=O)NC(C(=O)NC(C)C(O)C(C)C(=O)NC(C(=O)NCCc2nc(-c3nc(C(=O)NCCCCNC(=N)N)cs3)cs2)C(C)O)C(OC2OC(CO)C(O)C(O)C2OC2OC(CO)C(O)C(OC(N)=O)C2O)c2cnc[nH]2)n1 (stereo not drawn) [Compound 12] | 16438 | 4384 |
| CCCCCCCCCCCCNC(=O)C(N)CNC(CC(N)=O)c1nc(N)c(C)c(C(=O)NC(C(=O)NC(C)C(O)C(C)C(=O)NC(C(=O)NCCc2nc(-c3nc(C(=O)NCCCCNC(=N)N)cs3)cs2)C(C)O)C(OC2OC(CO)C(O)C(O)C2OC2OC(CO)C(O)C(OC(N)=O)C2O)c2cnc[nH]2)n1 (stereo not drawn) [Compound 13, 4-Guanidinobutylamino-(amido)N--[lauryl]-BLM] | 7650 | 660 |
| Cc1c(N)nc(C(CC(N)=O)NCC(N)C(=O)NCc2ccccc2)nc1C(=O)NC(C(=O)NC(C)C(O)C(C)C(=O)NC(C(=O)NCCc1nc(-c2nc(C(=O)NCCCCNC(=N)N)cs2)cs1)C(C)O)C(OC1OC(CO)C(O)C(O)C1OC1OC(CO)C(O)C(OC(N)=O)C1O)c1cnc[nH]1 (stereo not drawn) [Compound 14, 4-Guanidinobutylamino-(amido)N--[benzyl]-BLM] | 28140 | 1650 |
| Cc1c(N)nc(C(CC(N)=O)NCC(N)C(=O)NC(c2ccccc2)c2ccccc2)nc1C(=O)NC(C(=O)NC(C)C(O)C(C)C(=O)NC(C(=O)NCCc1nc(-c2nc(C(=O)NCCCCNC(=N)N)cs2)cs1)C(C)O)C(OC1OC(CO)C(O)C(O)C1OC1OC(CO)C(O)C(OC(N)=O)C1O)c1cnc[nH]1 (stereo not drawn) [Compound 15, 4-Guanidinobutylamino-(amido)N--[diphenylmethyl]-BLM] | 42320 | 980 |
| Cc1c(N)nc(C(CC(N)=O)NCC(N)C(=O)NC(Cc2ccccc2)c2ccccc2)nc1C(=O)NC(C(=O)NC(C)C(O)C(C)C(=O)NC(C(=O)NCCc1nc(-c2nc(C(=O)NCCCCNC(=N)N)cs2)cs1)C(C)O)C(OC1OC(CO)C(O)C(O)C1OC1OC(CO)C(O)C(OC(N)=O)C1O)c1cnc[nH]1 (stereo not drawn) [Compound 16, 4-Guanidinobutylamino-(amido)N--[1',2'-diphenylethyl]-BLM] | 24480 | 520 |
| Cc1c(N)nc(C(CC(N)=O)NCC(N)C(=O)Nc2ccc3ccccc3c2)nc1C(=O)NC(C(=O)NC(C)C(O)C(C)C(=O)NC(C(=O)NCCc1nc(-c2nc(C(=O)NCCCCNC(=N)N)cs2)cs1)C(C)O)C(OC1OC(CO)C(O)C(O)C1OC1OC(CO)C(O)C(OC(N)=O)C1O)c1cnc[nH]1 (stereo not drawn) [Compound 17, 4-Guanidinobutylamino-(amido)N--[β-naphthyl]-BLM] | 33650 | 1295 |
| Cc1c(N)nc(C(CC(N)=O)NCC(N)C(=O)NCc2ccco2)nc1C(=O)NC(C(=O)NC(C)C(O)C(C)C(=O)NC(C(=O)NCCc1nc(-c2nc(C(=O)NCCCCNC(=N)N)cs2)cs1)C(C)O)C(OC1OC(CO)C(O)C(O)C1OC1OC(CO)C(O)C(OC(N)=O)C1O)c1cnc[nH]1 (stereo not drawn) [Compound 18, 4-Guanidinobutylamino-(amido)N--[2-furylmethyl]-BLM] | 19150 | 1285 |
| Cc1c(N)nc(C(CC(N)=O)NCC(N)C(=O)NCc2cccnc2)nc1C(=O)NC(C(=O)NC(C)C(O)C(C)C(=O)NC(C(=O)NCCc1nc(-c2nc(C(=O)NCCCCNC(=N)N)cs2)cs1)C(C)O)C(OC1OC(CO)C(O)C(O)C1OC1OC(CO)C(O)C(OC(N)=O)C1O)c1cnc[nH]1 (stereo not drawn) [Compound 19, 4-Guanidinobutylamino-(amido)N--[3-pyridylmethyl]-BLM] | 5160 | 1010 |
| Cc1c(N)nc(C(CC(N)=O)NCC(N)C(=O)NCc2nccs2)nc1C(=O)NC(C(=O)NC(C)C(O)C(C)C(=O)NC(C(=O)NCCc1nc(-c2nc(C(=O)NCCCCNC(=N)N)cs2)cs1)C(C)O)C(OC1OC(CO)C(O)C(O)C1OC1OC(CO)C(O)C(OC(N)=O)C1O)c1cnc[nH]1 (stereo not drawn) [Compound 20, 4-Guanidinobutylamino-(amido)N--[2-thiazolylmethyl]-BLM] | 4870 | 900 |
| Cc1c(N)nc(C(CC(N)=O)NCC(N)C(=O)NCc2ccccc2)nc1C(=O)NC(C(=O)NC(C)C(O)C(C)C(=O)NC(C(=O)NCCc1nc(-c2nc(C(=O)NCCCNC(C)c3ccccc3)cs2)cs1)C(C)O)C(OC1OC(CO)C(O)C(O)C1OC1OC(CO)C(O)C(OC(N)=O)C1O)c1cnc[nH]1 [Compound 23, 3-((S)-1'-phenylethyl)aminopropylamino-(amido)N--[benzyl]-BLM] | 38348 | 1380 |
